Columns and labels:
Diabetic rats [1] = assay: Saphenous nerve sensory conduction velocity in streptozotocin-diabetic rats; type: in vivo, Sprague-Dawley rats; conditions: for Saphenous Nerve Sensory Conduction Velocity: group mean ± SEM (number of rats in brackets)
Method: Sensory conduction velocity in saphenous nerve was measured between the groin and ankle (as previously described by Cameron et al. Quarterly Journal of Experimental Physiology, 1989, vol. 74, pages 917-926).

Diabetic rats [2] = assay: Sciatic nerve motor conduction velocity in streptozotocin-diabetic rats; type: in vivo, Sprague-Dawley rats; conditions: for Sciatic Nerve Motor Conduction Velocity: group mean ± SEM (number of rats in brackets); for nerve conduction velocity (NCV), effect in words: animal model of diabetic neuropathy
Method: Motor nerve conduction velocity was measured (as previously described by Cameron et al, Diabetologia, 1993, Vol. 36, pages 299-304) between sciatic notch and knee in the nerve branch to tibialis anterior muscle, which is representative of the whole sciatic nerve in terms of susceptibility to diabetes and treatment effects.

Diabetic rats [3] = assay: Sciatic nerve blood flow by hydrogen clearance microelectrode polarography in streptozotocin-diabetic rats; conditions: for Sciatic Nerve Blood Flow: group mean ± SEM (number of rats in brackets); for nerve blood flow, effect in words: animal model of diabetic neuropathy
[4] = Diabetic + 2 weeks of dosing at 20 mg/kg
[5] = Diabetic + 2 weeks of dosing at 50 mg/kg
[6] = Rattus norvegicus, Dose response, 5 groups of 8 rats, dose ranged from 0.3-20 mg/kg

Row | SMILES | Saphenous Nerve Sensory Conduction Velocity (Diabetic rats [1]; [4]) | Saphenous Nerve Sensory Conduction Velocity (Diabetic rats [1]; [5]) | Sciatic Nerve Motor Conduction Velocity (Diabetic rats [2]; [4]) | Sciatic Nerve Motor Conduction Velocity (Diabetic rats [2]; [5]) | nerve conduction velocity (NCV), effect in words (Diabetic rats [2]) | Sciatic Nerve Blood Flow (Diabetic rats [3]; [5]) | nerve blood flow, effect in words (Diabetic rats [3]) | ED50 (Diabetic rats [1]; [6]) [mg/kg] | ED50 (Diabetic rats [2]; [6]) [mg/kg] | Sciatic Nerve Blood Flow (Diabetic rats [3]; [4])
1 | CC(C)c1c(C(=O)Nc2ccccc2)c(-c2ccccc2)c(-c2ccc(F)cc2)n1CC[C@@H](O)C[C@@H](O)CC(=O)O [Atorvastatin, atorvastatin] | 59.77 m/s ± 0.93 (6) | 60.72 m/s ± 0.94 (6) | 61.53 ± 0.76 (6) | 63.59 ± 0.69 (6) | improvement | 16.96 ± 1.39 ml/min/100 g (6) | improvement |  |  | 
2 | CC(C)c1nc(N(C)S(C)(=O)=O)nc(-c2ccc(F)cc2)c1/C=C/[C@@H](O)C[C@@H](O)CC(=O)O [The AGENT, (E)-7-[4-(4-fluorophenyl)-6-isopropyl-2-[methyl(methylsulfonyl)amino]pyrimidin-5-yl](3R,5S)-3,5-dihydroxyhept-6-enoic acid] | 60.57 m/s ± 0.83 (8) |  | 63.34 ± 0.61 (8) |  | improvement |  | improvement | 0.9 | 2.3 | 16.19 ± 0.51 ml/min/100 g (8)
